Data from ChEMBL document CHEMBL1201862, “PubChem BioAssay data set” (2004).
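Method: 48-hour compound exposure of cells in 96-well plates, five concentrations, linear interpolation of endpoints. GI50 is the concentration that inhibits growth by half.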 The source made the active and inactive calls. Cut-off read from the data, not from the text of the source: active = GI50 up to about 1.1 µM and inactive = higher.

Tests used:
Experiment in all cases: NCI-60 cell line screen, 48 h
OVCAR-3 = system: OVCAR-3
PC-3 = system: PC-3
MDA-MB-231 = system: MDA-MB-231
LOX IMVI = system: LOX IMVI
HL-60 = system: HL-60
UO-31 = system: UO-31
NCI/ADR-RES = system: NCI/ADR-RES
SK-MEL-2 = system: SK-MEL-2
NCI-H226 = system: NCI-H226
NCI-H23 = system: NCI-H23
SK-MEL-5 = system: SK-MEL-5
K562 = system: K562
UACC-257 = system: UACC-257
TK-10 = system: TK-10
HCT-15 = system: HCT-15
HOP-62 = system: HOP-62
CCRF-CEM = system: CCRF-CEM
U-251 = system: U-251
A549 = system: A549
SK-MEL-28 = system: SK-MEL-28

Compound	GI50 (OVCAR-3)	GI50 (PC-3)	GI50 (MDA-MB-231)	GI50 (LOX IMVI)	GI50 (HL-60)	GI50 (UO-31)	GI50 (NCI/ADR-RES)	GI50 (SK-MEL-2)	GI50 (NCI-H226)	GI50 (NCI-H23)	GI50 (SK-MEL-5)	GI50 (K562)	GI50 (UACC-257)	GI50 (TK-10)	GI50 (HCT-15) [µM]	GI50 (HOP-62)	GI50 (CCRF-CEM)	GI50 (U-251)	GI50 (A549)	GI50 (SK-MEL-28)
C=C1CC2(CCCC3(CC(=C)C(=O)O3)C2(C)C)OC1=O (stereo not given)	1.96 µM (inactive)	8.09 µM (inactive)	4.95 µM (inactive)	1.69 µM (inactive)	2.4 µM (inactive)	3.06 µM (inactive)	13.2 µM (inactive)	7.24 µM (inactive)	2.22 µM (inactive)	2.89 µM (inactive)	14.8 µM (inactive)	3.38 µM (inactive)	1.85 µM (inactive)	1.18 µM (inactive)	0.491	13.9 µM (inactive)	0.437 µM (active)	1.42 µM (inactive)	13.8 µM (inactive)	2.05 µM (inactive)
O/N=N/c1ccccn1.OCC1OC2OC3C(CO)OC(OC4C(CO)OC(OC5C(CO)OC(OC6C(CO)OC(OC7C(CO)OC(OC1C(O)C2O)C(O)C7O)C(O)C6O)C(O)C5O)C(O)C4O)C(O)C3O (stereo not given)	40.8 µM (inactive)	65.3 µM (inactive)	> 100 µM (inactive)	57.3 µM (inactive)	28.1 µM (inactive)	> 100 µM (inactive)	31.9 µM (inactive)	56.9 µM (inactive)	> 100 µM (inactive)	> 100 µM (inactive)	30.5 µM (inactive)	48.4 µM (inactive)	71.1 µM (inactive)	> 100 µM (inactive)	> 100	> 100 µM (inactive)	67.5 µM (inactive)	> 100 µM (inactive)	> 100 µM (inactive)	62.5 µM (inactive)
CCOC(=O)C(SCCO)C(C(=O)OCC)n1ccc(N)nc1=O (stereo not given)	> 100 µM (inactive)	> 100 µM (inactive)	> 100 µM (inactive)	> 100 µM (inactive)	> 100 µM (inactive)	> 100 µM (inactive)	> 100 µM (inactive)	> 100 µM (inactive)	> 100 µM (inactive)	> 100 µM (inactive)	> 100 µM (inactive)	> 100 µM (inactive)	> 100 µM (inactive)	> 100 µM (inactive)	> 100	> 100 µM (inactive)	> 100 µM (inactive)	> 100 µM (inactive)	> 100 µM (inactive)	> 100 µM (inactive)
CCOC(=O)C1=C(C)N(Cc2ccc(Cl)cc2Cl)C2(O)C=CC(=O)C3C(=O)N(c4ccccc4)C(=O)C132 (stereo not given)	1.37 µM (inactive)	1.5 µM (inactive)	2.1 µM (inactive)	0.682 µM (active)	1.46 µM (inactive)	2.07 µM (inactive)	2.29 µM (inactive)	1.77 µM (inactive)	1.54 µM (inactive)	1.63 µM (inactive)	2.09 µM (inactive)	0.659 µM (active)	2.2 µM (inactive)	2.72 µM (inactive)	1.52	2.87 µM (inactive)	0.222 µM (active)	1.67 µM (inactive)	2.11 µM (inactive)	1.59 µM (inactive)
Cc1ccc(C(=O)Nc2ccc(CP(=O)(O)O)cc2)cc1NC(=O)c1cccc(N)c1	> 100 µM (inactive)	> 100 µM (inactive)	> 100 µM (inactive)	> 100 µM (inactive)	> 100 µM (inactive)	> 100 µM (inactive)	> 100 µM (inactive)	> 100 µM (inactive)	> 100 µM (inactive)	> 100 µM (inactive)	> 100 µM (inactive)	> 100 µM (inactive)	> 100 µM (inactive)	> 100 µM (inactive)	> 100	> 100 µM (inactive)	> 100 µM (inactive)	> 100 µM (inactive)	> 100 µM (inactive)	> 100 µM (inactive)
COc1ccc2c(C)c(Oc3c(Cl)c(Cl)c(O)c(C#N)c3C#N)oc2c1	> 100 µM (inactive)	> 100 µM (inactive)	> 100 µM (inactive)	> 100 µM (inactive)	> 100 µM (inactive)	> 100 µM (inactive)	> 100 µM (inactive)	> 100 µM (inactive)	> 100 µM (inactive)	> 100 µM (inactive)	> 100 µM (inactive)	> 100 µM (inactive)	> 100 µM (inactive)	> 100 µM (inactive)	> 100	> 100 µM (inactive)	> 100 µM (inactive)	> 100 µM (inactive)	> 100 µM (inactive)	> 100 µM (inactive)
Oc1ccc(-c2nc(-c3ccc4ccccc4n3)c(-c3ccc(F)cc3)[nH]2)cc1	6.19 µM (inactive)	9.08 µM (inactive)	18.5 µM (inactive)	10.6 µM (inactive)	5.94 µM (inactive)	11.6 µM (inactive)	4.74 µM (inactive)	14.5 µM (inactive)	14.2 µM (inactive)	12.5 µM (inactive)	2.12 µM (inactive)	14.5 µM (inactive)	13.5 µM (inactive)	13.2 µM (inactive)	10.7	18 µM (inactive)	15.1 µM (inactive)	10.6 µM (inactive)	11.6 µM (inactive)	17.4 µM (inactive)
Nc1nc2c(ncn2Cc2ccc(CO)cc2)c(=O)[nH]1	> 100 µM (inactive)	> 100 µM (inactive)	> 100 µM (inactive)	> 100 µM (inactive)	4.42 µM (inactive)	> 100 µM (inactive)	> 100 µM (inactive)	> 100 µM (inactive)	> 100 µM (inactive)	> 100 µM (inactive)	> 100 µM (inactive)	> 100 µM (inactive)	> 100 µM (inactive)	> 100 µM (inactive)	> 100	> 100 µM (inactive)	> 100 µM (inactive)	> 100 µM (inactive)	> 100 µM (inactive)	> 100 µM (inactive)
CN(C)C(=S)C(Cl)(c1ccccc1)c1ccccc1	82 µM (inactive)	35.6 µM (inactive)	59.7 µM (inactive)	34.5 µM (inactive)	22.9 µM (inactive)	84.9 µM (inactive)	89.5 µM (inactive)	27.4 µM (inactive)	53.7 µM (inactive)	53.3 µM (inactive)	36.4 µM (inactive)	36.2 µM (inactive)	> 100 µM (inactive)	> 100 µM (inactive)	63	> 100 µM (inactive)	27.1 µM (inactive)	36.1 µM (inactive)	59.8 µM (inactive)	> 100 µM (inactive)
CCCOC(=O)C1C2CCC(O2)C1C(=O)O (stereo not given)	> 100 µM (inactive)	> 100 µM (inactive)	> 100 µM (inactive)	> 100 µM (inactive)	> 100 µM (inactive)	> 100 µM (inactive)	> 100 µM (inactive)	> 100 µM (inactive)	> 100 µM (inactive)	> 100 µM (inactive)	> 100 µM (inactive)	> 100 µM (inactive)	> 100 µM (inactive)	> 100 µM (inactive)	> 100	> 100 µM (inactive)	> 100 µM (inactive)	> 100 µM (inactive)	> 100 µM (inactive)	> 100 µM (inactive)
C=CCN1CN(C2CCCCC2)CSC1=S	7.01 µM (inactive)	5.02 µM (inactive)	15.5 µM (inactive)	3.9 µM (inactive)	0.129 µM (active)	8 µM (inactive)	8.83 µM (inactive)	8.18 µM (inactive)	14.6 µM (inactive)	8.28 µM (inactive)	2.68 µM (inactive)	0.652 µM (active)	3.68 µM (inactive)	3.69 µM (inactive)	2.54	5.57 µM (inactive)	0.818 µM (active)	3.59 µM (inactive)	16.5 µM (inactive)	5.18 µM (inactive)
CCCC/C=C1\CCC(CN2CCCCC2)C1=O (stereo not given)	29.8 µM (inactive)	> 100 µM (inactive)	> 100 µM (inactive)	> 28.9 µM (inactive)	7.6 µM (inactive)	32.8 µM (inactive)	> 100 µM (inactive)	> 39 µM (inactive)	26.5 µM (inactive)	28.1 µM (inactive)	26.6 µM (inactive)	7.82 µM (inactive)	24.9 µM (inactive)	12.4 µM (inactive)	9.06	33 µM (inactive)	7.73 µM (inactive)	29.2 µM (inactive)	33.3 µM (inactive)	21.3 µM (inactive)
COc1ccc(-n2c(N)c(C#N)[nH]c2=O)cc1	> 10 µM (inactive)	> 10 µM (inactive)	> 10 µM (inactive)	1.79 µM (inactive)	> 10 µM (inactive)	> 10 µM (inactive)	> 10 µM (inactive)	> 10 µM (inactive)	> 10 µM (inactive)	> 10 µM (inactive)	> 10 µM (inactive)	> 10 µM (inactive)	> 10 µM (inactive)	> 10 µM (inactive)	> 10	> 10 µM (inactive)	> 10 µM (inactive)	> 10 µM (inactive)	> 10 µM (inactive)	> 10 µM (inactive)
CC(C)CCCC(C)[C@H]1CCC2[C@@H]3CCC4Cc5nc6c(nc5C[C@]4(C)C3CC[C@@]21C)CC1CC[C@@H]2C(CC[C@@]3(C)C2CC[C@@H]3C(C)CCCC(C)C)[C@@]1(C)C6 (stereo not given in full)	> 100 µM (inactive)	> 100 µM (inactive)	> 100 µM (inactive)	> 100 µM (inactive)	> 100 µM (inactive)	> 100 µM (inactive)	> 100 µM (inactive)	> 100 µM (inactive)	> 100 µM (inactive)	> 100 µM (inactive)	> 100 µM (inactive)	> 100 µM (inactive)	> 100 µM (inactive)	> 100 µM (inactive)	> 100	> 100 µM (inactive)	> 100 µM (inactive)	> 100 µM (inactive)	> 100 µM (inactive)	> 100 µM (inactive)
